Patent US11130752B2, “Aminopyrimidine compound” (Cardurion Pharmaceuticals, LLC, priority 2018, dated 2021)

Tests used:
[1] = tested on: phospholamban (Thr17, PLN) phosphorylation, cardiac CaMKII; experiment: In vivo cardiac CaMKII inhibition (oral administration), P-PLN Western blot; conditions: male CD (SD) IGS rat left ventricle, 30 mg/kg p.o., 4 hr after administration, in comparison with vehicle-treated group, read-out: Reduction rate of P-PLN
Experimental: Evaluation of In Vivo Cardiac CaMKII Inhibition (Oral Administration)
To evaluate potency of test compounds to inhibit cardiac CaMKII kinase in vivo, phosphorylation levels of CaMKII-specific sites of phospholamban (Thr17, PLN) were measured in the heart of rats administered orally with test compounds.
Test compounds were suspended in 0.5% [w/v]methylcellulose/water solution and administered (30 mg/kg) to male CD (SD) IGS rat (6-8 weeks old, n=4) by the p.o. route (5 mL/kg). At 4 hours after the administration, rats were sacrificed and the hearts were harvested. After washing the isolated hearts with ice-cold saline, connective tissues were removed on ice, and the isolated left ventricle were frozen into liquid nitrogen gas and stored at −80° C.
The left ventricle samples were homogenized in RIPA-buffer containing phosphatase inhibitors and protease inhibitors. Samples were analyzed by Western blotting using anti-P-PLN (Thr17, Santa Cruz Biotechnology, sc-17024-R) antibody. The band intensities were quantified using an imaging system and were normalized relative to the vehicle-treated group.

human CaMKIIδ = biological target: T1, human CaMKIIδ (Homo sapiens, UniProt Q13557); experiment: In vitro CaMKII inhibitory activity (binding assay, TR-FRET); conditions: activity ranks
T1 construct: Full-length, glutathione-S-transferase(GST)-tagged, human CaMKIIδ was purchased from Carna Biosciences; purchased Carna Biosciences (CaMKIIδ); Wako Pure Chemical Industries (calmodulin) 02-111
In short: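 TR-FRET displacement of a BODIPY probe (300 nM) from 0.5 nM full-length GST-tagged human CaMKIIδ, with Tb-anti-GST, calmodulin and 1 mM CaCl2 in pH 7.6 HEPES/MgCl2 buffer. Read after 1 hr at room temperature over an eight-point 4-fold series. IC50 by logistic fit, with 3 μM parent compound as the 100% control.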

HepG2 cells = experiment: In vitro cytotoxicity (cellular ATP content, CellTiter-Glo); format: cell-based; conditions: 33 μM, 72 hr incubation
Experimental: Evaluation of In Vitro Cytotoxicity
To evaluate in vitro cytotoxicity of test compounds, % ATP reduction was determined in the presence of 33 μM of each test compound after 72 hr incubation.
HepG2 cells were seeded in DMEM (Invitrogen) containing 10% FBS (Corning)+glucose (4.5 g/L) for 24 hr to allow cell adhesion. For compound treatments, compounds were diluted in DMSO and the media, followed by added to the wells (24 hr after the cell seeding) to obtain the desired final concentration (33 μM, n=2). The final DMSO concentration was 1%. After 72 hr, cellular ATP contents were measured using CellTiter-Glo Luminescent Cell Viability Assay (Promega). The % ATP reduction was determined by comparing the ATP contents in the absence and the presence of test compounds.

[2] = Table 1, GST-tagged human CaMKIIδ
[3] = Table 4, GST-tagged human CaMKIIδ

Structure (SMILES) | inhibition in vivo at 30 mg/kg [1] [%] | IC50 (human CaMKIIδ; [2]) [nM] | % ATP reduction (HepG2 cells) [%] | melting point [°C] | IC50 (human CaMKIIδ; [3]) [nM]
CCOCCOc1nn([C@H]2CC[C@H](N3[C@@H]4CC[C@H]3COC4)CC2)cc1Nc1ncc(-c2ccc(C#N)c(O[C@@H](C)Cn3cnnn3)c2)cn1 [Example 12, 2-(((S)-1-(1H-tetrazol-1-yl)propan-2-yl)oxy)-4-(2-((1-((1r,4r)-4-((1R,5S)-3-oxa-8-azabicyclo[3.2.1]octan-8-yl)cyclohexyl)-3-(2-ethoxyethoxy)-1H-pyrazol-4-yl)amino)pyrimidin-5-yl)benzonitrile] | > 30 | < 10 | – | – | –
COCCCOc1nn([C@H]2CC[C@H](N3CCOCC3)CC2)cc1Nc1ncc(-c2ccc(C#N)c(O[C@@H](C)Cn3cnnn3)c2)cn1 [Example 26, 2-(((S)-1-(1H-tetrazol-1-yl)propan-2-yl)oxy)-4-(2-((3-(3-methoxypropoxy)-1-((1r,4r)-4-morpholinocyclohexyl)-1H-pyrazol-4-yl)amino)pyrimidin-5-yl)benzonitrile] | > 30 | < 10 | 9 | 153 | –
COCCCOc1nn([C@H]2CC[C@H](N3[C@@H]4CC[C@H]3COC4)CC2)cc1Nc1ncc(-c2ccc(C#N)c(O[C@@H](C)Cn3cnnn3)c2)cn1 [Example 30, 2-(((S)-1-(1H-tetrazol-1-yl)propan-2-yl)oxy)-4-(2-((1-((1r,4r)-4-((1R,5S)-3-oxa-8-azabicyclo[3.2.1]octan-8-yl)cyclohexyl)-3-(3-methoxypropoxy)-1H-pyrazol-4-yl)amino)pyrimidin-5-yl)benzonitrile] | > 30 | < 10 | – | – | –
CCOCCCOc1nn([C@H]2CC[C@H](N3CCOCC3)CC2)cc1Nc1ncc(-c2ccc(C#N)c(O[C@@H](C)Cn3cnnn3)c2)cn1 [Example 33, 2-(((S)-1-(1H-tetrazol-1-yl)propan-2-yl)oxy)-4-(2-((3-(3-ethoxypropoxy)-1-((1r,4r)-4-morpholinocyclohexyl)-1H-pyrazol-4-yl)amino)pyrimidin-5-yl)benzonitrile] | > 30 | < 10 | – | – | –
CCOCCCOc1nn([C@H]2CC[C@H](N3[C@@H]4CC[C@H]3COC4)CC2)cc1Nc1ncc(-c2ccc(C#N)c(O[C@@H](C)Cn3cnnn3)c2)cn1 [Example 36, 2-(((S)-1-(1H-tetrazol-1-yl)propan-2-yl)oxy)-4-(2-((1-((1r,4r)-4-((1R,5S)-3-oxa-8-azabicyclo[3.2.1]octan-8-yl)cyclohexyl)-3-(3-ethoxypropoxy)-1H-pyrazol-4-yl)amino)pyrimidin-5-yl)benzonitrile] | > 30 | < 10 | – | – | –
COCCOCCOc1nn([C@H]2CC[C@H](N3C[C@@H](C)O[C@@H](C)C3)CC2)cc1Nc1ncc(-c2ccc(C#N)c(O[C@@H](C)Cn3cnnn3)c2)cn1.Cl [Example 241, 2-(((S)-1-(1H-tetrazol-1-yl)propan-2-yl)oxy)-4-(2-((1-((1r,4r)-4-((2S,6R)-2,6-dimethylmorpholino)cyclohexyl)-3-(2-(2-methoxyethoxy)ethoxy)-1H-pyrazol-4-yl)amino)pyrimidin-5-yl)benzonitrile hydrochloride] | – | < 10 | −2 | – | –
C[C@@H]1CN([C@H]2CC[C@H](n3cc(Nc4ncc(-c5ccc(C#N)c(O[C@@H](C)Cn6cnnn6)c5)cn4)c(OCCC4COC4)n3)CC2)C[C@H](C)O1 [Example 477, 2-(((S)-1-(1H-tetrazol-1-yl)propan-2-yl)oxy)-4-(2-((1-((1r,4r)-4-((2S,6R)-2,6-dimethylmorpholino)cyclohexyl)-3-(2-(oxetan-3-yl)ethoxy)-1H-pyrazol-4-yl)amino)pyrimidin-5-yl)benzonitrile] | – | – | 9 | – | < 10
C[C@@H]1CN([C@H]2CC[C@H](n3cc(Nc4ncc(-c5ccc(Cl)c(O[C@@H](C)Cn6cnnn6)c5)cn4)c(OCCC(C)(C)O)n3)CC2)C[C@H](C)O1 [Example 486, 4-((4-((5-(3-(((S)-1-(1H-tetrazol-1-yl)propan-2-yl)oxy)-4-chlorophenyl)pyrimidin-2-yl)amino)-1-((1r,4r)-4-((2S,6R)-2,6-dimethylmorpholino)cyclohexyl)-1H-pyrazol-3-yl)oxy)-2-methylbutan-2-ol] | > 30 | – | – | – | < 10
COCCOCCCOc1nn([C@H]2CC[C@H](N3C[C@@H](C)O[C@@H](C)C3)CC2)cc1Nc1ncc(-c2ccc(Cl)c(O[C@@H](C)Cn3cnnn3)c2)cn1 [Example 487, 5-(3-(((S)-1-(1H-tetrazol-1-yl)propan-2-yl)oxy)-4-chlorophenyl)-N-(1-((1r,4r)-4-((2S,6R)-2,6-dimethylmorpholino)cyclohexyl)-3-(3-(2-methoxyethoxy)propoxy)-1H-pyrazol-4-yl)pyrimidin-2-amine] | > 30 | – | – | – | < 10
COCCOCCCOc1nn([C@H]2CC[C@H](N3C[C@@H](C)O[C@@H](C)C3)CC2)cc1Nc1ncc(-c2ccc(C#N)c(O[C@@H](C)Cn3cnnn3)c2)cn1 [Example 488, 2-(((S)-1-(1H-tetrazol-1-yl)propan-2-yl)oxy)-4-(2-((1-((1r,4r)-4-((2S,6R)-2,6-dimethylmorpholino)cyclohexyl)-3-(3-(2-methoxyethoxy)propoxy)-1H-pyrazol-4-yl)amino)pyrimidin-5-yl)benzonitrile] | > 30 | – | 3 | – | < 10
COCCCOc1nn([C@H]2CC[C@H](N3C[C@@H](C)O[C@@H](C)C3)CC2)cc1Nc1ncc(-c2ccc(Cl)c(O[C@@H](C)Cn3cnnn3)c2)cn1 [Example 489, 5-(3-(((S)-1-(1H-tetrazol-1-yl)propan-2-yl)oxy)-4-chlorophenyl)-N-(1-((1r,4r)-4-((2S,6R)-2,6-dimethylmorpholino)cyclohexyl)-3-(3-methoxypropoxy)-1H-pyrazol-4-yl)pyrimidin-2-amine] | > 30 | – | – | – | < 10
C[C@@H](Cn1cnnn1)Oc1cc(-c2cnc(Nc3cn([C@H]4CC[C@H](N5CCOCC5)CC4)nc3OCc3ncccn3)nc2)ccc1Cl [Example 509, 5-(3-(((S)-1-(1H-tetrazol-1-yl)propan-2-yl)oxy)-4-chlorophenyl)-N-(1-((1r,4r)-4-morpholinocyclohexyl)-3-(pyrimidin-2-ylmethoxy)-1H-pyrazol-4-yl)pyrimidin-2-amine] | – | – | – | – | 10 to 100
C[C@@H](Cn1cnnn1)Oc1cc(-c2cnc(Nc3cn([C@H]4CC[C@H](N5CCOCC5)CC4)nc3OCCc3cccnc3)nc2)ccc1Cl [Example 510, 5-(3-(((S)-1-(1H-tetrazol-1-yl)propan-2-yl)oxy)-4-chlorophenyl)-N-(1-((1r,4r)-4-morpholinocyclohexyl)-3-(2-(pyridin-3-yl)ethoxy)-1H-pyrazol-4-yl)pyrimidin-2-amine] | – | – | – | – | < 10
COCCOCCOCCOc1nn([C@H]2CC[C@H](N3CCOCC3)CC2)cc1Nc1ncc(-c2ccc(Cl)c(O[C@@H](C)Cn3cnnn3)c2)cn1 [Example 511, 5-(3-(((S)-1-(1H-tetrazol-1-yl)propan-2-yl)oxy)-4-chlorophenyl)-N-(3-(2-(2-(2-methoxyethoxy)ethoxy)ethoxy)-1-((1r,4r)-4-morpholinocyclohexyl)-1H-pyrazol-4-yl)pyrimidin-2-amine] | – | – | – | – | 10 to 100
[2H]C([2H])([2H])OCCCOc1nn([C@H]2CC[C@H](N3CCOCC3)CC2)cc1Nc1ncc(-c2ccc(Cl)c(O[C@@H](C)Cn3cnnn3)c2)cn1 [Example 512, 5-(3-(((S)-1-(1H-tetrazol-1-yl)propan-2-yl)oxy)-4-chlorophenyl)-N-(3-(3-(methoxy-d3)propoxy)-1-((1r,4r)-4-morpholinocyclohexyl)-1H-pyrazol-4-yl)pyrimidin-2-amine] | – | – | – | – | < 10
C[C@@H](Cn1cnnn1)Oc1cc(-c2cnc(Nc3cn([C@H]4CC[C@H](N5CCOCC5)CC4)nc3OCCn3cccn3)nc2)ccc1Cl [Example 513, N-(3-(2-(1H-pyrazol-1-yl)ethoxy)-1-((1r,4r)-4-morpholinocyclohexyl)-1H-pyrazol-4-yl)-5-(3-(((S)-1-(1H-tetrazol-1-yl)propan-2-yl)oxy)-4-chlorophenyl)pyrimidin-2-amine] | – | – | – | – | < 10
